Assay results from patent US20240245677A1, “SELECTED COMPOUNDS FOR TARGETED DEGRADATION OF BRD9” (C4 THERAPEUTICS, INC., priority 2021, published 2024).
Several values for one entry are separate records, joined by “and”; a condition that tells them apart may be missing. Equal values may be shown once. Read-outs that look alike come from different tables or passages of the source.

Experiment: Pharmacokinetic study in male CD1 mice
Type: in vivo, mouse
Settings: for concentration at 0.033 h / concentration at 0.33 h / concentration at 1 h / concentration at 2 h / concentration at 4 h / concentration at 8 h / concentration at 24 h / AUC(0-t): male, CD1, mouse
Method: The pharmacokinetic (PK) profile in plasma of Compound 1 was determined in male CD1 mice following single dose intravenous (IV) (2 mg/kg) and per os (PO) (10 mg/kg) administration. This study was performed under non-GLP conditions, and unless otherwise stated, all analytical reagents were at least standard laboratory reagent grade, and deionized water was prepared at the study site. The characteristics of Compound 1 used in this study were as follows: molecular weight of base, 710.78; molecular weight of Compound 1 with salt, 824.81; purity on as is basis, 99.28%. All animals were housed in cages with clean bedding and maintained and monitored for good health and at the discretion of the laboratory animal veterinarian. Certified rodent diet was provided, and water was available ad libitum. […] Normal healthy animals certified by the attending veterinarian were selected and acclimatized for a minimum of three days prior to initiation of the study. Animals were identified by body markings. Test animals were weighed prior to drug administration, and the standard weight of the animals used was 30 grams. The animals were divided into two groups, IV group and PO group, with each group containing 3 test animals each and 2 spare animals. The IV dose was administered by intravenous injection into the tail vein and PO dose was administered via oral gavage. The dosing volume was 5 mL/kg body weight for both groups. The dosing concentration was 0.4 mg/mL for the IV group and 2 mg/mL for the PO group. The animals were in fasted state during the study. For both dosing groups, blood was collected from the saphenous vein (serial sampling) for plasma isolation at 0.033, 0.33, 1, 2, 4, 6, 8, and 24 hour timepoints. The anti-coagulant solution used was 6% (v/v) sodium citrate (200 mM, pH 4.79). For sample collection, the mice were restrained, and the back of the hind leg was shaved until the saphenous vein was visible. The hind limb was immobilized, and slight pressure was applied gently above the knee joint. While taking aseptic precautions, the vein was punctured using a 20 G needle and 20-30 μL of blood was collected in pre-labeled pre-chilled tubes. After blood collection from each animal, the sample from that animal was recorded in the sample collection sheet. After collection of each blood sample, the blood sample was stored on ice prior to centrifugation. Blood samples were centrifuged within 0.5 hours of collection to separate plasma. Centrifugation was conducted at 2500×g for 15 minutes at 4° C. The plasma was separated and transferred to pre-labeled micro-centrifuge tubes and promptly frozen at -80° C.±10° C. and stored until bioanalysis was performed. Each sample was identified by test compound, group, animal number, and collection time point. A fit-for-purpose bioanalytical method was developed for analyzing the plasma samples. One set of nine standards was run before the sample batch and was used for plotting the calibration curve. Quality control (QC) samples were prepared at a minimum of three concentrations, i.e., LQC (not more than 5 times to that of lowest standard concentration), HQC (not less than 75% of the highest standard concentration), and MQC (between the low and high concentration). A minimum of 6 QC samples were prepared (three concentrations in duplicate). One set of QC (LQC, MQC and HQC) samples were analyzed before and after the sample batch. Samples were analyzed by Exion AD (Sciex, Framingham, MA, USA) high-pressure liquid chromatography (HPLC) system followed by tandem mass spectroscopy analysis (MS/MS) with Q TRAP 4500 (Sciex, Framingham, MA). The samples were resolved on a Kinetex® EVO C18 4.5*50 mm, 5 μm column (Phenomenex, Inc., Torrance, CA, USA). […] The flow rate was set at 1 mL/min. […] A positive electrospray ionization (ESI) method was used for detecting analytes and internal standard by mass spectroscopy. The MRM conditions were […]

[1] = mouse, plasma, male CD1 mice, 2 mg/kg IV, Mean
[2] = mouse, plasma, male CD1 mice, 10 mg/kg PO, Mean

With `COc1cc(-c2cn(C)c(=O)c(C)c2C)cc(OC)c1CN1CC[C@H](N2CCN(c3ccc(N[C@H]4CCC(=O)NC4=O)cc3F)CC2)C(F)(F)C1` [Compound 1, (S)-3-((4-(4-((S)-1-(2,6-dimethoxy-4-(1,4,5-trimethyl-6-oxo-1,6-dihydropyridin-3-yl)benzyl)-3,3-difluoropiperidin-4-yl)piperazin-1-yl)-3-fluorophenyl)amino)-piperidine-2,6-dione] the “Plasma Concentration, individual mice” value (2 mg/kg IV, 0.033 h) was 1282.85 ng/mL and 1230.25 ng/mL, the “Plasma Concentration, individual mice” value (2 mg/kg IV, 0.33 h) was 1069.92 ng/mL and 907.03 ng/mL and the “Plasma Concentration, individual mice” value (2 mg/kg IV, 1 h) was 778.91 ng/mL and 554.87 ng/mL. For the same molecule, the “Plasma Concentration, individual mice” value (2 mg/kg IV, 2 h) was 530.20 ng/mL and 551.12 ng/mL, the “Plasma Concentration, individual mice” value (2 mg/kg IV, 4 h) was 402.36 ng/mL and 398.41 ng/mL and the “Plasma Concentration, individual mice” value (2 mg/kg IV, 8 h) was 230.84 ng/mL and 279.05 ng/mL. The “Plasma Concentration, individual mice” value (2 mg/kg IV, 24 h) was 8.14 ng/mL and 10.81 ng/mL, the “Plasma Concentration, individual mice” value (10 mg/kg PO, 0.033 h) was 113.39 ng/mL and 45.23 ng/mL and 29.34 ng/mL and the “Plasma Concentration, individual mice” value (10 mg/kg PO, 0.33 h) was 1350.89 ng/mL and 1805.33 ng/mL. For the same molecule, the “Plasma Concentration, individual mice” value (10 mg/kg PO, 1 h) was 3702.63 ng/mL and 3513.39 ng/mL, the “Plasma Concentration, individual mice” value (10 mg/kg PO, 2 h) was 3236.77 ng/mL and 3069.59 ng/mL and the “Plasma Concentration, individual mice” value (10 mg/kg PO, 4 h) was 1775.48 ng/mL and 1635.06 ng/mL. The “Plasma Concentration, individual mice” value (10 mg/kg PO, 8 h) was 1094.97 ng/mL and 687.92 ng/mL, the “Plasma Concentration, individual mice” value (10 mg/kg PO, 24 h) was 40.19 ng/mL and 35.09 ng/mL and the CI (male CD1 mice, 2 mg/kg IV, Mean) was 6.201 mL/min/kg. The concentration at 0.033 h (plasma, intravenous, 2 mg/kg, 2 mg/kg IV, 0.033 h, read-out: Plasma Concentration, Average) was 1400 ng/mL, the concentration at 0.033 h (plasma, intravenous, 2 mg/kg, 2 mg/kg IV, 0.033 h, read-out: Plasma Concentration, individual mice) was 1690 ng/mL and the concentration at 0.33 h (plasma, intravenous, 2 mg/kg, 2 mg/kg IV, 0.33 h, read-out: Plasma Concentration, Average) was 1090 ng/mL. For the same molecule, the concentration at 0.33 h (plasma, intravenous, 2 mg/kg, 2 mg/kg IV, 0.33 h, read-out: Plasma Concentration, individual mice) was 1300 ng/mL, the concentration at 1 h (plasma, intravenous, 2 mg/kg, 2 mg/kg IV, 1 h, read-out: Plasma Concentration, Average) was 760 ng/mL and the concentration at 1 h (plasma, intravenous, 2 mg/kg, 2 mg/kg IV, 1 h, read-out: Plasma Concentration, individual mice) was 947 ng/mL. For the same molecule, the concentration at 2 h (plasma, intravenous, 2 mg/kg, 2 mg/kg IV, 2 h, read-out: Plasma Concentration, Average) was 630 ng/mL, the concentration at 2 h (plasma, intravenous, 2 mg/kg, 2 mg/kg IV, 2 h, read-out: Plasma Concentration, individual mice) was 809 ng/mL and the concentration at 4 h (plasma, intravenous, 2 mg/kg, 2 mg/kg IV, 4 h, read-out: Plasma Concentration, Average) was 456 ng/mL. It also gave a concentration at 4 h (plasma, intravenous, 2 mg/kg, 2 mg/kg IV, 4 h, read-out: Plasma Concentration, individual mice) of 567 ng/mL, a concentration at 8 h (plasma, intravenous, 2 mg/kg, 2 mg/kg IV, 8 h, read-out: Plasma Concentration, Average) of 256 ng/mL and a concentration at 8 h (plasma, intravenous, 2 mg/kg, 2 mg/kg IV, 8 h, read-out: Plasma Concentration, individual mice) of 257 ng/mL. The concentration at 24 h (plasma, intravenous, 2 mg/kg, 2 mg/kg IV, 24 h, read-out: Plasma Concentration, Average) was 10.2 ng/mL, the concentration at 24 h (plasma, intravenous, 2 mg/kg, 2 mg/kg IV, 24 h, read-out: Plasma Concentration, individual mice) was 11.5 ng/mL and the AUC(0-t) (plasma, iv, 2 mg/kg, male CD1 mice, 2 mg/kg IV, Mean) was 5390 ng·h/mL. It also gave a concentration at 0.033 h (plasma, oral, 10 mg/kg, 10 mg/kg PO, 0.033 h, read-out: Plasma Concentration, Average) of 62.7 ng/mL, a concentration at 0.33 h (plasma, oral, 10 mg/kg, 10 mg/kg PO, 0.33 h, read-out: Plasma Concentration, Average) of 1750 ng/mL and a concentration at 0.33 h (plasma, oral, 10 mg/kg, 10 mg/kg PO, 0.33 h, read-out: Plasma Concentration, individual mice) of 2100 ng/mL. For the same molecule, the concentration at 1 h (plasma, oral, 10 mg/kg, 10 mg/kg PO, 1 h, read-out: Plasma Concentration, Average) was 3370 ng/mL, the concentration at 1 h (plasma, oral, 10 mg/kg, 10 mg/kg PO, 1 h, read-out: Plasma Concentration, individual mice) was 2890 ng/mL and the concentration at 2 h (plasma, oral, 10 mg/kg, 10 mg/kg PO, 2 h, read-out: Plasma Concentration, Average) was 3150 ng/mL. The concentration at 2 h (plasma, oral, 10 mg/kg, 10 mg/kg PO, 2 h, read-out: Plasma Concentration, individual mice) was 3150 ng/mL, the concentration at 4 h (plasma, oral, 10 mg/kg, 10 mg/kg PO, 4 h, read-out: Plasma Concentration, Average) was 1770 ng/mL and the concentration at 4 h (plasma, oral, 10 mg/kg, 10 mg/kg PO, 4 h, read-out: Plasma Concentration, individual mice) was 1880 ng/mL. For the same molecule, the concentration at 8 h (plasma, oral, 10 mg/kg, 10 mg/kg PO, 8 h, read-out: Plasma Concentration, Average) was 983 ng/mL, the concentration at 8 h (plasma, oral, 10 mg/kg, 10 mg/kg PO, 8 h, read-out: Plasma Concentration, individual mice) was 1170 ng/mL and the concentration at 24 h (plasma, oral, 10 mg/kg, 10 mg/kg PO, 24 h, read-out: Plasma Concentration, Average) was 37.8 ng/mL. For the same molecule, the concentration at 24 h (plasma, oral, 10 mg/kg, 10 mg/kg PO, 24 h, read-out: Plasma Concentration, individual mice) was 38.2 ng/mL, the AUC(0-t) (plasma, po, 10 mg/kg, male CD1 mice, 10 mg/kg PO, Mean, first AUClast column) was 20000 ng·h/mL and the AUC(0-t) (plasma, po, 10 mg/kg, male CD1 mice, 10 mg/kg PO, Mean, second AUClast column) was 20200 ng·h/mL. The AUC(0-inf) [1] was 5450 ng·h/mL, the C0 [1] was 1440 ng/mL and the MRT last [1] was 5.15 h. It also gave a half-life [1] of 3.65 h, a Vd (mouse, plasma, male CD1 mice, 2 mg/kg IV, Mean, read-out: Vdss) of 2.01 L/kg and a Cmax [2] of 3460 ng/mL. The MRT last [2] was 5.38 h, the Tmax [2] was 1.33 h and the bioavailability [2] was 74.1%. It also gave a half-life [2] of 3.54 h.
